Laboratory results from US20090233957A1, “(-)-BELOXEPIN AND METHODS FOR ITS SYNTHESIS AND USE” (priority 2008, published 2009).

Test system: rat 50° C. hot plate model
Test: rat 50° C. hot plate assay
Type: in vivo
Protocol: Protocol. Rats were treated with vehicle, 30 mg/kg IP of (−)-beloxepin, or 30 mg/kg IP of (+)-beloxepin and then were placed on a hot plate (50° C.) 30, 60, or 120 minutes after administration of the vehicle or beloxepin enantiomer. Rats treated with 3 mg/kg SC of morphine and tested 30 min post-treatment were used as a positive control in these experiments.

Cc1cccc2c1Oc1ccccc1C1(O)CCN(C)CC21 (single isomer, unassigned; (+)) [(+)-beloxepin]
antinociceptive activity (30 mg/kg IP, 30, 60, 120 min): no antinociception was observed | % MPE values (range) (30 mg/kg IP, 30, 60 or 120 min): 10-17%
